System: mouse lymphoma lines (BCL1 and Myc/Bc12)
Test: qRT-PCR of TNF family cytokines in mouse lymphoma lines
Format: cell-based
Details: solHVEM 10 μg/ml; BCL1 and Myc/Bcl2 lines; 24 hrs
Excerpt: FIG. 5A-I. Abnormal activation of the lymphoid stroma in B-cell lymphomas. FIG. 5A, Immunohistofluorescence staining for the FDC marker CD21/35 and the FRC marker Collagen 1 on control lymphomas (vector) and HVEM knockdown lymphomas (shHVEM) (n=3 for each, scale bars=100 μm); FIG. 5B and FIG. 5C, Systematic quantification of CD21/35 (left) and collagen I (right) staining in control (Vector) and HVEM deficient (shHVEM) lymphomas based on 12 areas in the T-cell zone and 30 areas in the B-cell zone per mice (cumulative number for 3 mice), respectively; ** p<0.01; *** p<0.001 by parametric t-test; FIG. 5D and FIG. 5E, CXCL13 (FIG. 5D) and CCL19 (FIG. 5E) expression by qRT-PCR on control (vector) and HVEM knockdown (shHVEM) lymphomas (mean of four replicates, error bars indicate standard deviation, * p<0.01); FIG. 5F, qRT-PCR measurement of the LTa, LTb, and TNFa mRNA expression in B cells isolated from the spleens of vector and shHVEM mice (n=3); FIG. 5G-I, qRT-PCR measurement of TNFa (FIG. 5G), LTa (FIG. 5H), and LTb (FIG. 5I) in B cell line BCL1 after 24 hrs of treatment with solHVEM (10 μg/ml).
FIG. 12A-F. Analysis of the lymphoid stroma in B cell lymphomas. FIG. 12A, Immunohistofluorescence staining of CD20pos B cells, Transglutaminasepos FRCs, and CD21Lpos FDCs in reactive lymph nodes and two separate human follicular lymphoma tissue specimens; FIG. 12B, Flowchart of the image processing for FRC density (Collagen I); briefly, images were thresholded and transformed to binaries images, then a watershed algorithm was applied and number of polygons evaluated and analyzed by ImageJ software; FIG. 12C, Number of polygons indicates FRC density in control lymphomas (vector) and HVEM knockdown lymphomas showing no difference in FRC contribution. 40 areas were selected in the T cell zone and analyzed per mice (n=3 per each group); FIG. 12D-F, qRT-PCR measurement of TNFa (FIG. 12D), LTa (FIG. 12E), and LTb (FIG. 12F) in mouse B-cell line EuMyc-Bc12. […]

Substance: solHVEM: Leu39-Val202 soluble HVEM ectodomain polypeptide of SEQ ID NO. 8
- expression of LTa: readily decreased
- expression of LTb: readily decreased
- expression of TNFa: did not reduce
